Consider one molecule from patent publication EP4050002A1, “ANTI-PROLIFERATIVE AGENTS” (First Health Pharmaceuticals B.V., priority 2021, dated 2022).

For one series, the system named is MDAMB231 cell line. Description: Cytotoxicity, cell count method. It is filed as cell-based, human. The settings on record: Homo sapiens, MDA-MB-231, MDAMB231, 72 hours of incubation. On the procedure:
(§1) The anti-tumor activity of the compounds of the present invention was evaluated as the effect on the proliferation and survival of tumor cells by counting the number of living cells in presence or absence of the compounds ("cell count method"), and as the effect on the viability and metabolic activity of the cells, by using particular substrates that are converted by cellular enzymes into coloured or luminescent products, proportionally with metabolic activity and state of the cell, such as the MTS tetrazolium compound ("MTS method") or luciferin ("ATP-based method") respectively.
Cells were seeded at 3 to 5 x 10^4 cells/well density depending on cell lines and maintained at 37°C in 5% CO2. After 24 hours cells were treated with ascending concentrations of the investigational compounds and the reference (5-fluoro-Uracyl) in a range from 0 to 100 µM. Compounds were dissolved in DMSO which final concentration in each well was 0.5% v:v. After 72 h of incubation with compounds, the cells were detached with trypsin and re-suspended in 1 ml of complete medium; the cell number was evaluated using a Z2 Coulter Counter ("cell count method") (Attallah and Johnson, A simple highly sensitive methods for the determination of cell viability using an electronic particle analyzer, Coulter counter J. Immunol. Methods. 1981, 41, 155; Leonardi et al., Activated kinase screening identifies the IKBKE oncogene as a positive regulator of autophagy. Autophagy, 2019, 15, 312). Alternatively, after the 72 hours of incubation with compounds, the MTS solution (CellTiter 96® AQueous One Solution Cell Proliferation Assay) is added to each well and absorbance at 490 nm wavelength is read after 2 hours of incubation ("MTS method"). Results in Tables 8-13, 17, 18 were obtained with the cell count method. Results in Tables 14-15 were obtained with the MTS method. Results in Table 16 were obtained with ATP-based method.

The subject of series [1] is Triple negative breast cancer (cell line MDA-MB-231). Put plainly: Subcutaneous xenograft mice model. Particulars: MDA-MB-231 xenograft, 45 mg/Kg I.P. every Monday, Wednesday and Friday for 5 weeks. Format: in vivo, nude FOXN1nu/nu mice. On the procedure:
(§2) Human cancer cell lines were inoculated subcutaneously in nude FOXN1^nu/nu mice (Envigo spa) in both flanks.
(§3) The number of cells inoculated varied between different cell lines: • A549 and A549 Red-FLuc: 5 x 10^6 in medium:matrigel (1:1 v/v) • MDAMB231: 2.8 x 10^6 in medium:matrigel (1:2 v/v)
(§4) When tumors reach the appropriate volume for each cell line, the compounds were administered I.P. every 48 hours, 3 times a week every Monday, Wednesday and Friday for 5 weeks, at a dose selected from the PK study, as follows: • vehicle: 10% DMSO, 5% TWEEN 80 and WFI (85%) • treatment group dose: 45 mg/kg • control group: vehicle only • dose concentration: 12 mg/ml in 10% DMSO, 5% TWEEN 80 and WFI (85%) • volume: 5 ml/kg
(§5) Tumor volume was evaluated twice a week with caliper and calculated with the standard formula (Length ^∗ Height ^∗ Height)/2. Mice were weighed twice a week. Tumor growth is calculated with respect to the first day of treatment (day 0) as ratio between the volume at each day of measurement and day 0.

The subject of series [2] is Non-small cell lung cancer (cell line A549). Description: Subcutaneous xenograft mice model. Particulars: 45 mg/Kg I.P. every Monday, Wednesday and Friday for 5 weeks. It is filed as in vivo, nude FOXN1nu/nu mice. On the procedure:
as §2, §3, §4, §5

For series [3], the system named is Non-small cell lung cancer engineered with a luciferase reporter (cell line A549 Red-FLuc). Description: Subcutaneous xenograft mice model. The settings on record: 45 mg/Kg I.P. every Monday, Wednesday and Friday for 5 weeks. It is filed as in vivo, nude FOXN1nu/nu mice. On the procedure:
as §2, §3, §4, §5

The next series concerns PBMC. Put plainly: Cytotoxicity in primary cells, ATP-based method. Format: cell-based, human. On the procedure:
The non-specific toxicity of the compounds is evaluated in non-tumor immortalized cells with cell count and / or MTS methods, and in primary Peripheral Blood Mononuclear Cells (PBMC) with the ATP-based method.
Primary human Peripheral Blood Mononuclear Cells (PBMC) are incubated at 37°C and 5% CO2 for the viability assay with CellTiter Glo 2.0 kit, an ATP-based method (Promega, Catalog number: G9241). 48 h prior to the assay, 2 µg/ml of phytohemagglutinin-A (PHA) are added to PBMC culture and cells are incubated for 48 h at 37°C and 5% CO2. PBMC are centrifuged at 300 G for 10 minutes, then re-suspended in growth medium and plated at density of 6 x 10^4 cells/well. […]
PBMC incubated with the same amount of DMSO present in the compound dilutions are used as control. After the incubation, 50 µl of cell cultures from each well are transferred in a luminescence plate after vigorous pipetting and 50 µl of CellTiter Glo 2.0 are added in each well, then the plate is incubated in the Glomax Discovery Reader (Promega, Catalog number: GM3000) following the instructions. Relative luminescence units (RLU) calculated in each well is elaborated with GraphPad software: 100% viability is determined as the mean RLU value measured in the wells containing untreated PBMCs. IC50 was calculated by GraphPad Prism 8.0 software.

Another series has as its system K562 cell line. Description: Cytotoxicity, MTS method. Particulars: Homo sapiens, K562, 72 hours of incubation. It is filed as cell-based. Here is the method:
as §1
Cells were seeded at 3 to 5 x 10^4 cells/well density depending on cell lines and maintained at 37°C in 5% CO2. After 24 hours cells were treated with ascending concentrations of the investigational compounds and the reference (5-fluoro-Uracyl) in a range from 0 to 100 µM. […] After 72 h of incubation with compounds, the cells were detached with trypsin and re-suspended in 1 ml of complete medium; the cell number was evaluated using a Z2 Coulter Counter ("cell count method") (Attallah and Johnson, A simple highly sensitive methods for the determination of cell viability using an electronic particle analyzer, Coulter counter J. Immunol. Methods. 1981, 41, 155; Leonardi et al., Activated kinase screening identifies the IKBKE oncogene as a positive regulator of autophagy. Autophagy, 2019, 15, 312). […]
Background: Tetrazolium assays rely on reduction of a dye to a coloured formazan, in cell work by metabolically active cells.

For the molecule `CCCCc1cn(-c2ccc(-c3nnc(-c4ccccc4C(F)(F)F)o3)cc2)nn1` [Compound 5], the IC50 (commonly the concentration needed to halve the response being measured) worked out at 0.58 µM with MDAMB231 cell line; 200 µM in the series with PBMC (Homo sapiens, PBMC, 72 hours of incubation, ATP-based method); 20.3 µM in the series on K562 cell line. In addition, the tumor growth entry in series [1], in series [2] and in series [3] was “counteract tumor growth” throughout. Besides, in the series with PBMC (primary human cells (Table 16)), the toxicity entry is given as “above 100 µM”.
